Data: article PMC6979384, “Characterization of the plant homeodomain (PHD) reader family for their histone tail interactions” (Epigenetics & Chromatin, 2020)

Legend:
Test in all cases: Histone peptide microarray
Assay type in all cases: binding, human
CHD4 (PPCC) = settings: GST-tagged CHD4 (PPCC = Dual PHD + Dual Chromodomain); sheet Array Heatmap; each array performed twice, total n = 4
Summary of the method: (§1)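 Recombinant GST-PHD protein at 0.5 μM; 293-member modified histone peptide array; signals averaged from four repeats ± SD.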

BPTF (PB) = settings: GST-tagged BPTF (PB = PHD + Bromodomain); sheet Array Heatmap; each array performed twice, total n = 4
Summary of the method: as §1

KDM4C (TTP) = settings: GST-tagged KDM4C (TTP = Tandem Tudor domain + PHD); sheet Array Heatmap; each array performed twice, total n = 4
Summary of the method: as §1

TAF3 = settings: GST-tagged TAF3; sheet Array Heatmap; each array performed twice, total n = 4
Summary of the method: as §1

PHF23 = settings: GST-tagged PHF23; sheet Array Heatmap; each array performed twice, total n = 4
Summary of the method: as §1

MLL5 = settings: GST-tagged MLL5; sheet Array Heatmap; each array performed twice, total n = 4
Summary of the method: as §1

MORC3 (CW) = settings: GST-tagged MORC3 (CW = CW-type Zn-finger); sheet Array Heatmap; each array performed twice, total n = 4
Summary of the method: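 Each reader, produced as a GST fusion and purified, was tested at 0.5 μM on synthetic histone peptides (293 in total) carrying single or combinatorial marks. Intensities averaged over four replicates.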

PHF2 = settings: GST-tagged PHF2; sheet Array Heatmap; each array performed twice, total n = 4
Summary of the method: as §1

CHD5 (PPCC) = settings: GST-tagged CHD5 (PPCC = Dual PHD + Dual Chromodomain); sheet Array Heatmap; each array performed twice, total n = 4
Summary of the method: as §1

ING2 = settings: GST-tagged ING2; sheet Array Heatmap; each array performed twice, total n = 4
Summary of the method: as §1

PHF13 = settings: GST-tagged PHF13; sheet Array Heatmap; each array performed twice, total n = 4
Summary of the method: as §1

KDM7A = settings: GST-tagged KDM7A; sheet Array Heatmap; each array performed twice, total n = 4
Summary of the method: as §1

ING4 = settings: GST-tagged ING4; sheet Array Heatmap; each array performed twice, total n = 4
Summary of the method: as §1

DIDO1 = settings: GST-tagged DIDO1; sheet Array Heatmap; each array performed twice, total n = 4
Summary of the method: as §1

DPF2 (PPC2W2) = settings: GST-tagged DPF2 (PPC2W2 = Dual PHD + C2W2-type Zn-finger); sheet Array Heatmap; each array performed twice, total n = 4
Summary of the method: as §1

ING1 = settings: GST-tagged ING1; sheet Array Heatmap; each array performed twice, total n = 4
Summary of the method: as §1

CHD5 (PCC) = settings: GST-tagged CHD5 (PCC = PHD + Dual Chromodomain); sheet Array Heatmap; each array performed twice, total n = 4
Summary of the method: as §1

ING5 = settings: GST-tagged ING5; sheet Array Heatmap; each array performed twice, total n = 4
Summary of the method: as §1

RAG2 = settings: GST-tagged RAG2; sheet Array Heatmap; each array performed twice, total n = 4
Summary of the method: as §1

KDM5B (3) = settings: GST-tagged KDM5B (3); sheet Array Heatmap; each array performed twice, total n = 4
Summary of the method: as §1

ING3 = settings: GST-tagged ING3; sheet Array Heatmap; each array performed twice, total n = 4
Summary of the method: as §1

KDM5A (1) = settings: GST-tagged KDM5A (1); sheet Array Heatmap; each array performed twice, total n = 4
Summary of the method: as §1

KDM5A (3) = settings: GST-tagged KDM5A (3); sheet Array Heatmap; each array performed twice, total n = 4
Summary of the method: as §1

KDM5B (1) = settings: GST-tagged KDM5B (1); sheet Array Heatmap; each array performed twice, total n = 4
Summary of the method: as §1

SP140L = settings: GST-tagged SP140L; sheet Array Heatmap; each array performed twice, total n = 4
Summary of the method: as §1

PHF21A = settings: GST-tagged PHF21A; sheet Array Heatmap; each array performed twice, total n = 4
Summary of the method: as §1

AIRE (PP) = settings: GST-tagged AIRE (PP); sheet Array Heatmap; each array performed twice, total n = 4
Summary of the method: as §1

PHRF1 (RP) = settings: GST-tagged PHRF1 (RP); sheet Array Heatmap; each array performed twice, total n = 4
Summary of the method: as §1

PHF8 = settings: GST-tagged PHF8; sheet Array Heatmap; each array performed twice, total n = 4
Summary of the method: as §1

TRIM66 (PB) = settings: GST-tagged TRIM66 (PB = PHD + Bromodomain); sheet Array Heatmap; each array performed twice, total n = 4
Summary of the method: as §1

BAZ2B = settings: GST-tagged BAZ2B; sheet Array Heatmap; each array performed twice, total n = 4
Summary of the method: as §1

H3T3p + K4me3: H3 1-20 was tested, and the “Array Heatmap signal (histone peptide microarray)” value (“Array Heatmap signal” for short) (CHD4 (PPCC)) was 0.624, the “Array Heatmap signal” value (BPTF (PB)) was 0.35 and the “Array Heatmap signal” value (KDM4C (TTP)) was 0.4706. The “Array Heatmap signal” value (TAF3) was 0.2953, the “Array Heatmap signal” value (PHF23) was 0.5295 and the “Array Heatmap signal” value (MLL5) was 0.5412. The “Array Heatmap signal” value (MORC3 (CW)) was 0.5559, the “Array Heatmap signal” value (PHF2) was 0.5905 and the “Array Heatmap signal” value (CHD5 (PPCC)) was 0.5481. For the same substance, the “Array Heatmap signal” value (ING2) was 0.6632, the “Array Heatmap signal” value (PHF13) was 0.62 and the “Array Heatmap signal” value (KDM7A) was 0.3295. The “Array Heatmap signal” value (ING4) was 0.4716, the “Array Heatmap signal” value (DIDO1) was 0.6916 and the “Array Heatmap signal” value (DPF2 (PPC2W2)) was 0.6866. For the same substance, the “Array Heatmap signal” value (ING1) was 0.5588, the “Array Heatmap signal” value (CHD5 (PCC)) was 0.7821 and the “Array Heatmap signal” value (ING5) was 0.3533. For the same substance, the “Array Heatmap signal” value (RAG2) was 0.2672, the “Array Heatmap signal” value (KDM5B (3)) was 0.5163 and the “Array Heatmap signal” value (ING3) was 0.4764. The “Array Heatmap signal” value (KDM5A (1)) was 0.462, the “Array Heatmap signal” value (KDM5A (3)) was 0.5826 and the “Array Heatmap signal” value (KDM5B (1)) was 0.6609. The “Array Heatmap signal” value (SP140L) was 0.3246, the “Array Heatmap signal” value (PHF21A) was 0.4603 and the “Array Heatmap signal” value (AIRE (PP)) was 0.3968. For the same substance, the “Array Heatmap signal” value (PHRF1 (RP)) was 0.4433, the “Array Heatmap signal” value (PHF8) was 0.3669 and the “Array Heatmap signal” value (TRIM66 (PB)) was 0.5989. For the same substance, the “Array Heatmap signal” value (BAZ2B) was 0.4608.
